These results are taken from US20240383942A1, “WATER-SOLUBLE ALLOPR[…], AND PREPARATION METHOD THEREFOR AND USE THEREOF” (NANJING MINOVA PHARMACEUTICAL CO., LTD., priority 2021, published 2024).

pIC50: −log10 of the molar value. Where a name gives a salt, the structure may show the parent alone. Where only a bound is given, the exact number is not on record here.

The nature of data set [1]: Saturation solubility by external standard HPLC method. The conditions noted are these: thermodynamic from solid; purified water, 25° C., stirred 24 h. It counts as physicochemical. As for the experimental part: Preparation of an external standard solution: 50 mg of a compound to be tested was precisely weighed out, added to a 10 mL volumetric flask, and dissolved in a proper amount of purified water by ultrasonication. The solution was diluted to volume and mixed well to give an external standard solution with a concentration of 5.0 mg/mL.
The solution was stirred for dissolution for 24 h at 25° C. and centrifuged. The supernatant was taken and filtered through a 0.45 μm filter membrane, and the filtrate was collected. 1 mL of the filtrate described above was precisely measured out and added to a 5 mL measuring flask. Purified water was added to dilute the filtrate to volume, and the solution was mixed well to give a solution to be tested.
2. Determination of Saturation Solubility by External Standard Method
Chromatographic Conditions
Chromatographic column: Waters XBridge C8 3.5 μm 4.6×100 mm NRT2019-21#, column temperature: 45° C., detection wavelength: 205 nm;
Mobile phase A: a 10 mM/L (NH4)2HPO4 solution, mobile phase B: acetonitrile, isocratic elution A:B=40:60, flow rate: 1.0 mL/min;
Injection volume: 10 μL, run time: 10 min.
Purified water was used as a blank control solution, and the peak areas of the external standard solution and the standard solution were measured using a high performance liquid chromatograph with a UV detector and denoted as Aexternal standard and Ato be tested, respectively.

A short description of data set [2]: In vitro metabolic study in human liver microsome incubation system. The conditions noted are these: for Concentration of the compound to be tested (parent): human liver microsomes 0.5 mg protein/mL, NADPH, 37° C. As for the experimental part:
Instruments, conditions and parameters: liquid chromatography-mass spectrometry system (LC/MS/MS, Shimadzu LC 30-AD, MS API 4000); the chromatographic column was ACQUITY UPLC BEH C18 column (1.7 μm 2.1×50 mm Column, Part No. 186002350); the mobile phase was acetonitrile-water-formic acid (50:50:0.1); the flow rate was 0.7 mL/min; the injection volume was 5μL; the column temperature was room temperature. An electrospray ionization (ESI) source was adopted with a spray voltage of 4.8 KV; the capillary temperature (TEM) was 300° C.; the sheath gas was N2, and the flow rate was 10 psi; the auxiliary gas was N2, and the flow rate was 1 psi; the collision-induced dissociation (CID) gas was Ar, and the pressure was 1.5 mTorr. The mass spectrometry scan mode was mass spectrometry multiple reaction monitoring (MRM), and the positive ion mode was used for detection.
About 10 mg of each of the samples to be tested was precisely weighed out and dissolved in 0.1 mL of DMSO, and the solution was stepwise diluted with purified water to prepare 10 μM and 1 μM standard stock solutions. In an ice bath, the detection incubation system was prepared according to Table 3. NADPH was added to the incubation system (see Table 4 for its composition) to start a reaction, and 50 μL of the resulting mixture was taken immediately and added to 150 μL of acetonitrile as a time-zero sample and a 1 μM standard curve sample. Another 1 μM standard stock solution was added to the incubation system, and 50 μL of the resulting mixture was taken immediately and added to 150 μL of acetonitrile as a 0.1 μM standard curve sample. […] Each sample was shaken and centrifuged at 18,000 g for 10 min, and a sample of the supernatant was taken and injected for LC/MS/MS analysis.
In general terms: Liver microsomes are vesicles of endoplasmic reticulum, rich in cytochrome P450 enzymes.

The conditions of data set [3]: in the human body; cited from earlier work.
A further data set concerns the target hERG potassium channel (Homo sapiens, UniProt Q12809). The data set can be described thus: Manual patch clamp assay of hERG potassium channel current in CHO-hERG cells. (The patch-clamp technique gives a direct electrical read-out from membranes.)

Sequence of hERG potassium channel (Q12809 whole entry): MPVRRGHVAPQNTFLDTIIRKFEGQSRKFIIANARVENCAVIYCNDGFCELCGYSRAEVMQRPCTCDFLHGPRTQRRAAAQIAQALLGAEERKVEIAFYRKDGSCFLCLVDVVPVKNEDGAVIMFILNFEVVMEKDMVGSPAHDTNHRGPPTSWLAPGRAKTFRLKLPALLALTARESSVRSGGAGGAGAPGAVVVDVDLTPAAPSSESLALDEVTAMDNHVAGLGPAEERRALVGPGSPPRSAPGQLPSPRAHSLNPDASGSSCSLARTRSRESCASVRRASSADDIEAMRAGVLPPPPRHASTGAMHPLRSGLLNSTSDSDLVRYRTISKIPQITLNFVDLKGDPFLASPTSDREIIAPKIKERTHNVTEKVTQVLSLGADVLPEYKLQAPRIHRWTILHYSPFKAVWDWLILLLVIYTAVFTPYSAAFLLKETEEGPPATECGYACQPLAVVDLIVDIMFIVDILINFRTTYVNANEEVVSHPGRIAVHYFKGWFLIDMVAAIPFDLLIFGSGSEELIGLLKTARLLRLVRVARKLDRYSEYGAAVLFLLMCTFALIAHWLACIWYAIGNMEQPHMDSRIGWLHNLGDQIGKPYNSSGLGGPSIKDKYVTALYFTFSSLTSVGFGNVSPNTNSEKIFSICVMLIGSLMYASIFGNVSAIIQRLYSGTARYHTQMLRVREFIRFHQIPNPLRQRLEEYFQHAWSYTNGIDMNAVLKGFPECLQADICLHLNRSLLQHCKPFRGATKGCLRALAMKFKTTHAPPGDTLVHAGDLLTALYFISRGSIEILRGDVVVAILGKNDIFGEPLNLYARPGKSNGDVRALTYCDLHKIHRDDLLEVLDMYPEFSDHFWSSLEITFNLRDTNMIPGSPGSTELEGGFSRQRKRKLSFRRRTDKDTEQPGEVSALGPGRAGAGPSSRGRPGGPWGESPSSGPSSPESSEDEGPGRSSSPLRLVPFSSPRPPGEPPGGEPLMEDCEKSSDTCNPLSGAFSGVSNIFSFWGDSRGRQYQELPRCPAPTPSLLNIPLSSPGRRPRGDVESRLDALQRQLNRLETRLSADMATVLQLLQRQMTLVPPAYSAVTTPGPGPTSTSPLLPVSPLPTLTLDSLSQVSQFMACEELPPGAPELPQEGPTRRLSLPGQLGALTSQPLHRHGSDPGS
Protocol for hERG potassium channel: The manual patch clamp method was used to measure the effect of the compounds on hERG potassium channel current stably expressed in Chinese hamster ovary cells.
Manual patch clamp assay method:
CHO-hERG cells in the exponential growth phase were collected and resuspended in ECS (extracellular solution) for later use. The cells were seeded in a cell recording chamber, and the chamber was placed on the stage of an inverted microscope. One of the cells in the tank was randomly selected for testing. The perfusion system was fixed onto the stage of the inverted microscope, and the cell was perfused continuously with ECS. […]
The clamping voltage was −80 mV. […] The peak value of the tail current was measured and used for analysis. […] In the initial stage of recording the perfusion with the solvent control working solution, the peak value of the tail current was monitored until 3 or more scanning curves were stabilized, and then perfusion was performed with the test sample/positive control working solution to be tested until the inhibitory effect of the test sample/positive control working solution on the peak value of the hERG current reached a stable state.
The hERG current was recorded under the whole cell patch clamp technology at room temperature. […] Data were collected and recorded by Patchmaster Pro software and processed using Origin 8E software, and hERG IC50 values were calculated.

A word on the solubility: it is how much of the substance goes into solution per volume. A higher solubility goes with a readily soluble substance. `CC(=O)[C@H]1CC[C@H]2[C@@H]3CC[C@H]4C[C@H](O)CC[C@]4(C)[C@H]3CC[C@]12C` [Allopregnanolone, 3α-OH-5α-pregnan-20-one] registered a solubility at 24 h in data set [1] of less than 0.01 mg/mL. The “Concentration of the compound to be tested (parent)” value (from here on “Concentration of the compound”) came to 1000 nM in data set [2] (incubation time 0 min); 626 nM in data set [2] (incubation time 5 min); 414 nM in data set [2] (incubation time 15 min); 259 nM in data set [2] (incubation time 30 min); 150 nM in data set [2] (incubation time 45 min); 119 nM in data set [2] (incubation time 60 min). Moreover, the plasma half-life result in data set [3] is recorded as “about 45 minutes”.

Compound `CC(=O)[C@H]1CC[C@H]2[C@@H]3CC[C@H]4C[C@H](OC(=O)[C@@H](N)C(C)C)CC[C@]4(C)[C@H]3CC[C@]12C` [Comparative compound 1 hydrochloride] gave a solubility at 24 h in data set [1] of 29.9 mg/mL.

The term pIC50 denotes the negative decadic logarithm of the IC50, by convention in mol/L. Lower therefore signals a high IC50. Turning to `CC(=O)[C@H]1CC[C@H]2[C@@H]3CC[C@H]4C[C@H](OC(=O)[C@@H](N)C(C)C)CC[C@]4(C)[C@H]3CC[C@]12C` [Comparative compound 1], the “Concentration of the compound” value in data set [2] (incubation time 0 min) was 1000 nM; in data set [2] (incubation time 5 min), 801 nM; in data set [2] (incubation time 15 min) it was 680 nM; in data set [2] (incubation time 30 min) it was 484 nM; in data set [2] (incubation time 45 min) it was 306 nM; in data set [2] (incubation time 60 min) it was 256 nM. Also, in data set [2] (liver microsome system), the “concentration of allopregnanolone resulting from metabolism reaching a stable level (in words)” value was “unable to achieve a stable level”. This compound also showed a pIC50 on hERG potassium channel of 6.11.

On to `[2H]C(C)(C)[C@H](N)C(=O)O[C@@H]1CC[C@@]2(C)[C@@H](CC[C@@H]3[C@@H]2CC[C@]2(C)[C@@H](C(C)=O)CC[C@@H]32)C1` [Compound 1 hydrochloride], for which the solubility at 24 h in data set [1] turned out to be 31.2 mg/mL.

Consider `[2H]C(C)(C)[C@H](N)C(=O)O[C@@H]1CC[C@@]2(C)[C@@H](CC[C@@H]3[C@@H]2CC[C@]2(C)[C@@H](C(C)=O)CC[C@@H]32)C1` [Compound 1], for which the “Concentration of the compound” value came to 1000 nM in data set [2] (incubation time 0 min); 956 nM in data set [2] (incubation time 5 min); 874 nM in data set [2] (incubation time 15 min); 575 nM in data set [2] (incubation time 30 min); 423 nM in data set [2] (incubation time 45 min); 352 nM in data set [2] (incubation time 60 min). The compound also gave a negative logarithm of the IC50 (pIC50) on hERG potassium channel of 5.71.

The compound `[2H]C([2H])([2H])C([C@H](N)C(=O)O[C@@H]1CC[C@@]2(C)[C@@H](CC[C@@H]3[C@@H]2CC[C@]2(C)[C@@H](C(C)=O)CC[C@@H]32)C1)C([2H])([2H])[2H]` [Compound 2 hydrochloride] returned a solubility at 24 h in data set [1] of 36.1 mg/mL.

On to `[2H]C(N)(C(=O)O[C@@H]1CC[C@@]2(C)[C@@H](CC[C@@H]3[C@@H]2CC[C@]2(C)[C@@H](C(C)=O)CC[C@@H]32)C1)C(C)C` (stereo partly drawn) [Compound 3 hydrochloride], for which the solubility at 24 h in data set [1] is 19 mg/mL.

Regarding `O=C(O)Cc1ccccc1Nc1c(Cl)cccc1Cl` [Diclofenac, diclofenac], the “Concentration of the compound” value is 1000 nM in data set [2] (incubation time 0 min); 374 nM in data set [2] (incubation time 5 min); 77 nM in data set [2] (incubation time 15 min); 8 nM in data set [2] (incubation time 30 min); 1 nM in data set [2] (incubation time 45 min); 1 nM in data set [2] (incubation time 60 min).

Consider `C[C@]12CC[C@H]3[C@@H](CCC4=CC(=O)CC[C@@]43C)[C@@H]1CC[C@@H]2O` [Testosterone, testosterone], for which the “Concentration of the compound” value amounted to 1000 nM in data set [2] (incubation time 0 min); 677 nM in data set [2] (incubation time 5 min); 379 nM in data set [2] (incubation time 15 min); 155 nM in data set [2] (incubation time 30 min); 63 nM in data set [2] (incubation time 45 min); 44 nM in data set [2] (incubation time 60 min).
